Reference: ChEMBL document CHEMBL1777813, “Discovery of novel tetracyclic compounds as anaplastic lymphoma kinase inhibitors” (Bioorg Med Chem Lett, 2011)
The source made the active and inactive calls. The calls are words filed in the database; no cut-off is given here.

Experiments:
[1] = Clearance in mouse liver microsomes at 1 uM after 30 mins in presence of NADPH; format: ADME, Microsome
[2] = Clearance in human liver microsomes at 1 uM after 30 mins in presence of NADPH; format: ADME, Microsome
KARPAS-299 [3] = assay: cells; details: Homo sapiens, KARPAS-299, 96 h
[4] = molecular target: ALK tyrosine kinase receptor (Homo sapiens, UniProt Q9UM73)
Sequence of ALK tyrosine kinase receptor (Q9UM73 whole entry): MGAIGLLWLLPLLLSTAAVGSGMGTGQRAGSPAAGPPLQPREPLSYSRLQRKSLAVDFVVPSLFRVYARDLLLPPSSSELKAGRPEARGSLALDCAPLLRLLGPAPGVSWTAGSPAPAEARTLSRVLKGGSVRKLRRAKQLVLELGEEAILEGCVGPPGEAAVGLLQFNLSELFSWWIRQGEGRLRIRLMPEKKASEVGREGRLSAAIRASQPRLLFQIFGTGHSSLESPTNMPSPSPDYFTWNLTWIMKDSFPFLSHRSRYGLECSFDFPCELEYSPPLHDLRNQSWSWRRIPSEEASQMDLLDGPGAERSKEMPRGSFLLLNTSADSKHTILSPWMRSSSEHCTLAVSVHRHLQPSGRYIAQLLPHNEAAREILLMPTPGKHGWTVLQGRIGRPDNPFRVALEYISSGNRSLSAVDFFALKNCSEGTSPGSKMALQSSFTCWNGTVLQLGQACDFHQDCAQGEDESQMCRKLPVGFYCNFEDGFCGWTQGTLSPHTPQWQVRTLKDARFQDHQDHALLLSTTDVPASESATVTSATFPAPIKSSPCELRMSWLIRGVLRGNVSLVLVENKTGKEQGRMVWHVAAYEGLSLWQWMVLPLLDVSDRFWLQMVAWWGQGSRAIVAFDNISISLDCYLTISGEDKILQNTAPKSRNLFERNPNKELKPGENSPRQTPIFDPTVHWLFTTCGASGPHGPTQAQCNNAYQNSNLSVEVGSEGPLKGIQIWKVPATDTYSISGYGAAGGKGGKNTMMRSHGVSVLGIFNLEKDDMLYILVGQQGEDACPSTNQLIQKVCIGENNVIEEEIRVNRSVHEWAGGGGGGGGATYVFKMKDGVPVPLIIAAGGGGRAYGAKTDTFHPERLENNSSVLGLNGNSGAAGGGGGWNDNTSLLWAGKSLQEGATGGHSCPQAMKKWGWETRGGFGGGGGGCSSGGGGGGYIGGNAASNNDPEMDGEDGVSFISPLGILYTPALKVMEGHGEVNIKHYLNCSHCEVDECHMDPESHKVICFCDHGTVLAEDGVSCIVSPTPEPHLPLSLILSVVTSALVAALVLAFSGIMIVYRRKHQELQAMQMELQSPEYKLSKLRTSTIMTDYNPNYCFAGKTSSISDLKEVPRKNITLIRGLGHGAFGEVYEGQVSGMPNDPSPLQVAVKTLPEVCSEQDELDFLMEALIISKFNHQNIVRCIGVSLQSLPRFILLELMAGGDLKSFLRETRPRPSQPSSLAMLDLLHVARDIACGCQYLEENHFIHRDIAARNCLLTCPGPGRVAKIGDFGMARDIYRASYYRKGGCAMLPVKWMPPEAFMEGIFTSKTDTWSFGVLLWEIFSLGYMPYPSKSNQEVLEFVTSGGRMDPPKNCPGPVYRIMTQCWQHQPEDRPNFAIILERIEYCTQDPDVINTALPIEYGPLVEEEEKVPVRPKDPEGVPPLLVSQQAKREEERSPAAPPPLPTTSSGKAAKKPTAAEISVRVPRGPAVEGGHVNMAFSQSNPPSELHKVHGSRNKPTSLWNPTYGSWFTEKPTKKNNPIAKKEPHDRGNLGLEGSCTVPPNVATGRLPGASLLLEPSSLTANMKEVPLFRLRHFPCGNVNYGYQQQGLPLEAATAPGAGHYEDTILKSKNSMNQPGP

[5] = molecular target: Vascular endothelial growth factor receptor 2 (Homo sapiens, UniProt P35968); assay: Inhibition of KDR assessed as biotin-EGPWLEEEEEAYGWMDF peptide phosphorylation by TR-FRET assay
Sequence of Vascular endothelial growth factor receptor 2 (P35968 whole entry): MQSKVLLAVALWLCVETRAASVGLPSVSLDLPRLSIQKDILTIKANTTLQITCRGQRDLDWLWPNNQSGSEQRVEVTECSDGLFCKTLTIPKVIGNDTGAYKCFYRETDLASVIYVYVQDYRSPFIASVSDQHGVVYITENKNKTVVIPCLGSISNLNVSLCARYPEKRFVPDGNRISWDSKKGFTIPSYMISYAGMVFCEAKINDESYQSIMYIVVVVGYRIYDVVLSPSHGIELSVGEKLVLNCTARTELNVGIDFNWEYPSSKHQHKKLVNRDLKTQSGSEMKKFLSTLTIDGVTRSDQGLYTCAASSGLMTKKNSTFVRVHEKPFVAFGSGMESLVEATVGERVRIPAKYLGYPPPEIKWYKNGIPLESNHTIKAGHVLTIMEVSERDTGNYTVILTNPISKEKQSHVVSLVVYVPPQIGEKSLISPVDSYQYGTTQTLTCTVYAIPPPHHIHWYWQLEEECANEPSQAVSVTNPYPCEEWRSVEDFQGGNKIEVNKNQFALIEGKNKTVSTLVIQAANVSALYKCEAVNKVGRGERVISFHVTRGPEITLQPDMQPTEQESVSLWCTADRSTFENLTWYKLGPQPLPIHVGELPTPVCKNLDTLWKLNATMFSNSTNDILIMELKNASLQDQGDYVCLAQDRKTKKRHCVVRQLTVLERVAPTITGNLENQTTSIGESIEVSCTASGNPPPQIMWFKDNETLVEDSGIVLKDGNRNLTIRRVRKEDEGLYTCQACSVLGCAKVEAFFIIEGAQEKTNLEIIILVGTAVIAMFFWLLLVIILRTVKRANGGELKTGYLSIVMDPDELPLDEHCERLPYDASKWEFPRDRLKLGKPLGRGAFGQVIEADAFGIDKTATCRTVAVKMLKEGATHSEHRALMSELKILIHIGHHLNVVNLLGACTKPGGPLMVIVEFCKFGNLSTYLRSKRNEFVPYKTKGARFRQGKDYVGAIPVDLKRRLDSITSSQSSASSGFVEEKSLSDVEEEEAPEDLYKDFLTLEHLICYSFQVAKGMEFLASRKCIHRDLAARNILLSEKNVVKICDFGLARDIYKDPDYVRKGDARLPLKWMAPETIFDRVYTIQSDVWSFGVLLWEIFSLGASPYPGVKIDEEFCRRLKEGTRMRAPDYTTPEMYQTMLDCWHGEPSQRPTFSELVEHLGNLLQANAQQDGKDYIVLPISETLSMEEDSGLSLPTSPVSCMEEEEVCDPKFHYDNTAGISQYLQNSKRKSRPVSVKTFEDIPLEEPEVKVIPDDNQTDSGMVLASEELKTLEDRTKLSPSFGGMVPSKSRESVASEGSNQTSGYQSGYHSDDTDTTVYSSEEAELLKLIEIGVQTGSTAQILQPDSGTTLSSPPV

[6] = molecular target: Epidermal growth factor receptor (Homo sapiens, UniProt P00533); assay: Inhibition of EGFR assessed as biotin-EGPWLEEEEEAYGWMDF peptide phosphorylation by TR-FRET assay
[7] = molecular target: Protein kinase C alpha type (Homo sapiens, UniProt P17252); assay: Inhibition of PKCalpha assessed as FLC-SIYRRGSRRWRKL peptide phosphorylation by fluorescence polarization assay
[8] = molecular target: RAF proto-oncogene serine/threonine-protein kinase (Homo sapiens, UniProt P04049); assay: Inhibition of Raf1 assessed as MEK1/2 phosphorylation by fluorescence polarization assay
NCI-H2228 [9] = assay: Antitumor activity against human NCI-H2228 cells expressing EML4-ALK xenografted in SCID mouse assessed as reduction of tumor volume administered as po qd for 11 days; format: functional, organism-based
[10] = molecular target: Tyrosine-protein kinase ABL1 (Homo sapiens, UniProt P00519); assay: Inhibition of Abl assessed as biotin-EGPWLEEEEEAYGWMDF peptide phosphorylation by TR-FRET assay
[11] = molecular target: Proto-oncogene tyrosine-protein kinase Src (Homo sapiens, UniProt P12931); assay: Inhibition of Src assessed as biotin-EGPWLEEEEEAYGWMDF peptide phosphorylation by TR-FRET assay
[12] = molecular target: RAC-alpha serine/threonine-protein kinase (Homo sapiens, UniProt P31749); assay: Inhibition of AKT1 assessed as FI-H1-peptide phosphorylation by fluorescence polarization assay
Sequence of RAC-alpha serine/threonine-protein kinase (P31749 whole entry): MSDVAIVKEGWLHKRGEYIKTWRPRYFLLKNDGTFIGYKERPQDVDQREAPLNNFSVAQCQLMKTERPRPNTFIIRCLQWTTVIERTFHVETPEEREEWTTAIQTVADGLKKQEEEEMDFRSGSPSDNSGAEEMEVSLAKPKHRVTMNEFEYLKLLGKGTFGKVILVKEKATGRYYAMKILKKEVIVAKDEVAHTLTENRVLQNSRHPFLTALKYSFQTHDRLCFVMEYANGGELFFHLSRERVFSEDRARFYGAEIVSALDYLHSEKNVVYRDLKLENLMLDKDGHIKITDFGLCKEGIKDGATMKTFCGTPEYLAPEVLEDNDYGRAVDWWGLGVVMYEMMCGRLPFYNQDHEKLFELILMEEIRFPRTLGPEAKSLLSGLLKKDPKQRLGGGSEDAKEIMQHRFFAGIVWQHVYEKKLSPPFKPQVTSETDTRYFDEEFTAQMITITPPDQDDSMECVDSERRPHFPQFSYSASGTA

Mus musculus [13] = assay: Toxicity in human NCI-H2228 cells expressing EML4-ALK xenografted SCID mouse administered as change in body weight at 0.2 to 20 mg/kg, po qd for 11 days; format: organism-based; design: dose 0.2-20 mg/kg, route oral; details: in vivo, 264 h
[14] = molecular target: Mast/stem cell growth factor receptor Kit (Homo sapiens, UniProt P10721); assay: Inhibition of Kit assessed as biotin-HEQEDEPEGDYFEWLEPE peptide phosphorylation by TR-FRET assay
Sequence of Mast/stem cell growth factor receptor Kit (P10721 whole entry): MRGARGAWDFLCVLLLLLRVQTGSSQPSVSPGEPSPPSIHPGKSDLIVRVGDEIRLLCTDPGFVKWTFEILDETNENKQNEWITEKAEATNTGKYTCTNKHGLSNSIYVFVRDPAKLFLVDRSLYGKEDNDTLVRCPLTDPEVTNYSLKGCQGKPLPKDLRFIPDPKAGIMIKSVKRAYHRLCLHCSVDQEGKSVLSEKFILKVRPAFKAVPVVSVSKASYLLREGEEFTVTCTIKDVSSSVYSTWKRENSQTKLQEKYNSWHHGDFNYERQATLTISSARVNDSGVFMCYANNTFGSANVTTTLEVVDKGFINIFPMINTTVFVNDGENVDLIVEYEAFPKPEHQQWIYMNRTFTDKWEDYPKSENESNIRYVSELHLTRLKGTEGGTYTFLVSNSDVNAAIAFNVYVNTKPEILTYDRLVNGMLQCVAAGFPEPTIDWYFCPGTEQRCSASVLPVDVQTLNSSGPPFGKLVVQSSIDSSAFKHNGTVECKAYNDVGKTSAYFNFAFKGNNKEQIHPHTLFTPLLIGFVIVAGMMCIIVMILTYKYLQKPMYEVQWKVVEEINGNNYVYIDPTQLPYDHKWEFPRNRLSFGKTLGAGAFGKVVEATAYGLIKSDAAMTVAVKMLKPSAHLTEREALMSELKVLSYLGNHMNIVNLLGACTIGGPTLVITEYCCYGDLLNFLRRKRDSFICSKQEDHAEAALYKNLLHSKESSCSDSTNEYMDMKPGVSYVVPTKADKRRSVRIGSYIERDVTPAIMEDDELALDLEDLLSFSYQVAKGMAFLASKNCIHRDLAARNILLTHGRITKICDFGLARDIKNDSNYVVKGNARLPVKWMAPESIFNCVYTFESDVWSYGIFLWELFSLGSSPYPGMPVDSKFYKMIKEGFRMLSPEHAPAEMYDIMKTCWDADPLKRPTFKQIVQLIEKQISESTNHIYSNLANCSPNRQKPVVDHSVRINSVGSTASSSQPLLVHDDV

Aurora kinase A = molecular target: T1, Aurora kinase A (Homo sapiens, UniProt O14965); assay: Inhibition of aurora A assessed as FLC-LRRASLG peptide phosphorylation by fluorescence polarization assay
T1 sequence (O14965 whole entry): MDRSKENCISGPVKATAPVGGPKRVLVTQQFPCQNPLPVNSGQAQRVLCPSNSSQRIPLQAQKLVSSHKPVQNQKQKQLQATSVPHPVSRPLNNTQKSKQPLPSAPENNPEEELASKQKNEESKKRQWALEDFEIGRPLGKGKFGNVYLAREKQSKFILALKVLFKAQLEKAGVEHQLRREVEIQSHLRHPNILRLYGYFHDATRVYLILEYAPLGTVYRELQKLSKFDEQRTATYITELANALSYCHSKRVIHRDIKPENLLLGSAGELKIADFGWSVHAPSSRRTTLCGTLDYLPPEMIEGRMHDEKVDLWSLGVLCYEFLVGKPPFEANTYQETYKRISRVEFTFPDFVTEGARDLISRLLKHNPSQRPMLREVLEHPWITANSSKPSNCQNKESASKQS

[15] = molecular target: Fibroblast growth factor receptor 2 (Homo sapiens, UniProt P21802); assay: Inhibition of FGFR2 assessed as biotin-EGPWLEEEEEAYGWMDF peptide phosphorylation by TR-FRET assay
KARPAS-299 [16] = assay: Antitumor activity against human KARPAS299 cells expressing NPM-ALK xenografted in SCID mouse assessed as reduction of tumor volume administered as po qd for 11 days; format: functional, organism-based
[17] = molecular target: Receptor tyrosine-protein kinase erbB-2 (Homo sapiens, UniProt P04626); assay: Inhibition of HER2 assessed as biotin-HEQEDEPEGDYFEWLEPE peptide phosphorylation by TR-FRET assay
KARPAS-299 [18] = assay: Antitumor activity against human KARPAS299 cells expressing NPM-ALK xenografted in SCID mouse assessed as tumor regression at 6 to 60 mg/kg, po qd for 11 days; format: functional, organism-based
[19] = molecular target: T2, Protein kinase C beta type (Homo sapiens, UniProt P05771); assay: Inhibition of PKCbeta1 assessed as FLC-SIYRRGSRRWRKL peptide phosphorylation by fluorescence polarization assay
T2 sequence (P05771 whole entry): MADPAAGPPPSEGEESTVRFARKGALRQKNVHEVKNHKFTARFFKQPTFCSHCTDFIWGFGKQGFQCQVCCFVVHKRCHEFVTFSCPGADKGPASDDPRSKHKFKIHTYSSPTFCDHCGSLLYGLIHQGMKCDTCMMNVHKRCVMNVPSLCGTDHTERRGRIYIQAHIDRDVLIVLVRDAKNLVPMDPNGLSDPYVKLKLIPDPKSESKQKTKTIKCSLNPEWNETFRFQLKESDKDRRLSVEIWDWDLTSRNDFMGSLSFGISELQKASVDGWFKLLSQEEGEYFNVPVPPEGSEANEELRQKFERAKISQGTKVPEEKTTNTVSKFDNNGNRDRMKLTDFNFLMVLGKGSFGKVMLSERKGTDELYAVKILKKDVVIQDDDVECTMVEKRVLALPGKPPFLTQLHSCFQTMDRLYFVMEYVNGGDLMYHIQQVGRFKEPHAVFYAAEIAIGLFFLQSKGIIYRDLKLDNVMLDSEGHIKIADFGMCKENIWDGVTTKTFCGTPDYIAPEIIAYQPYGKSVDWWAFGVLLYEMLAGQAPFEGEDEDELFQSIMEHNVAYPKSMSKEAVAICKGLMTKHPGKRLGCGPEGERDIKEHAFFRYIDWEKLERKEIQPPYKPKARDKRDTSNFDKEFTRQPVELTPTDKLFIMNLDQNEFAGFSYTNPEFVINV

[20] = molecular target: Insulin-like growth factor 1 receptor (Homo sapiens, UniProt P08069); assay: Inhibition of IGF1R assessed as biotin-EGPWLEEEEEAYGWMDF peptide phosphorylation by TR-FRET assay
[21] = molecular target: T2, Protein kinase C beta type; assay: Inhibition of PKCbeta2 assessed as FLC-SIYRRGSRRWRKL peptide phosphorylation by fluorescence polarization assay
Mus musculus [22] = assay: Toxicity in human KARPAS299 cells expressing NPM-ALK xenografted SCID mouse administered as change in body weight at 6 to 60 mg/kg, po qd for 11 days; format: organism-based, KARPAS-299; design: dose 6-60 mg/kg, route oral; details: in vivo, 264 h
NCI-H2228 [23] = assay: Antitumor activity against human NCI-H2228 cells expressing EML4-ALK xenografted in SCID mouse assessed as tumor regression at 0.2 to 20 mg/kg, po qd for 11 days; format: functional, organism-based

microsomal CLint at 1 µM [1] [µL/min/mg] | microsomal CLint at 1 µM [2] [µL/min/mg] | IC50 (KARPAS-299 [3]) [µM] | IC50 [4] [µM] | Structure (SMILES) | also measured
51.4 | 54.5 | 0.06 | – | CCN(CC)CCOc1ccc2c(c1)C(C)(C)c1[nH]c3cc(C#N)ccc3c1C2=O | –
6.8 | 4 | 2.31 | – | CC1(C)c2cc(OCCNC(N)=O)ccc2C(=O)c2c1[nH]c1cc(C#N)ccc21 | –
– | – | – | 0.77 | CCN(CC)CCOc1ccc2c(c1)C(C)(C)c1oc3cc(Br)ccc3c1C2=O | –
– | – | 0.49 | – | CCN(CC)CCOc1ccc2c(c1)C(C)(C)c1[nH]c3cc(Cl)ccc3c1C2=O | –
– | – | – | 2.47 | CCCOc1ccc2c3c(oc2c1)C(C)(C)c1cc(OCCN(CC)CC)ccc1C3=O | –
14.1 | 4.2 | 0.397 | 0.0116 | CC(=O)NCCOc1ccc2c(c1)C(C)(C)c1[nH]c3cc(C#N)ccc3c1C2=O | –
– | – | 0.68 | – | CCN(CC)CCOc1ccc2c(c1)C(C)(C)c1[nH]c3cc(Br)ccc3c1C2=O | –
– | – | – | 0.66 | CCN(CC)CCOc1ccc2c(c1)C(C)(C)c1oc3cc(Cl)ccc3c1C2=O | –
– | – | – | 3.47 | CCN(CC)CCOc1ccc2c(c1)C(C)(C)c1oc3cc(C(F)(F)F)ccc3c1C2=O | –
– | – | 0.57 | – | CCN(CC)CCOc1ccc2c(c1)C(C)(C)c1[nH]c3cc([N+](=O)[O-])ccc3c1C2=O | –

More lines, now with the values behind:

Structure (SMILES) | microsomal CLint at 1 µM [1] [µL/min/mg] | microsomal CLint at 1 µM [2] [µL/min/mg] | IC50 (KARPAS-299 [3]) [µM] | IC50 [4] [µM] | also measured
CC(C)N1CCN(c2ccc3c(c2)C(C)(C)c2[nH]c4cc(C#N)ccc4c2C3=O)CC1 | 23.1 | 82.7 | – | – | –
CC1(C)c2cc(N3CCOCC3)ccc2C(=O)c2c1[nH]c1cc(C#N)ccc21 | 8.1 | 33.6 | 0.134 | 0.0185 | –
CC1(C)c2cc(N3CCN(S(C)(=O)=O)CC3)ccc2C(=O)c2c1[nH]c1cc(C#N)ccc21 | 15.8 | 19.2 | 0.263 | 0.0374 | –
CC1(C)c2cc(N3CCCCC3)ccc2C(=O)c2c1[nH]c1cc(C#N)ccc21 | 58.9 | 39.5 | 0.331 | 0.0334 | –
CC1(C)c2cc(N3CCN(C4COC4)CC3)ccc2C(=O)c2c1[nH]c1cc(C#N)ccc21 | 15.1 | 9.6 | 0.0479 | 0.027 | –
CC1(C)c2cc(OCCN3CCS(=O)(=O)CC3)ccc2C(=O)c2c1[nH]c1cc(C#N)ccc21 | 24.9 | 67 | 0.0875 | 0.0037 | –
CC1(C)c2cc(C3CCN(C4COC4)CC3)ccc2C(=O)c2c1[nH]c1cc(C#N)ccc21 | 10.4 | 10.2 | – | – | IC50 [5]: 0.1 µM; IC50 [6]: > 50 µM; IC50 [7]: > 50 µM; IC50 [8]: > 50 µM; Activity (NCI-H2228 [9]): Dose-dependent effect; IC50 [10]: 0.37 µM; IC50 [11]: 0.25 µM; IC50 [12]: > 50 µM; Activity (Mus musculus [13]): Non-toxic; IC50 [14]: > 50 µM; IC50 (Aurora kinase A): > 50 µM; IC50 [15]: 0.36 µM; Activity (KARPAS-299 [16]): Dose-dependent effect; IC50 [17]: > 50 µM; Activity (KARPAS-299 [18]): Active; IC50 [19]: > 50 µM; IC50 [20]: 1 µM; IC50 [21]: > 50 µM; Activity (Mus musculus [22]): Non-toxic; Activity (NCI-H2228 [23]): Active
CC1(C)c2cc(N3CCC(O)CC3)ccc2C(=O)c2c1[nH]c1cc(C#N)ccc21 | 24.6 | 7.1 | 0.115 | 0.0114 | –
